Data: US11542530B2, “Method for increasing efficiency of homologous recombination-based gene editing in plant” (INDUSTRY-ACADEMIC COOPERATION FOUNDATION GYEONGSANG …, priority 2018, dated 2023)
Like-named read-outs stand apart in the source and are kept apart here.

Legend:
recombinase RAD51 = conditions: mouse, reported; cited from earlier work
RAD51 = assay: HDR efficiency after treatment with RS-1; format: cell-based; conditions: RS-1 as activator of RAD51
Text: As a method which can be used either simultaneously or separately from the approaching method of above VI, there is a method of activating HDR pathway-regulating proteins by using chemical factors.

mammalian ligase IV [1] = conditions: mouse, reported; cited from earlier work
mammalian ligase IV [2] = conditions: human cell line, reported; cited from earlier work
[3] = system: ligase IV of the NHEJ pathway; assay: HDR efficiency after treatment with NHEJ inhibitor SCR7 pyrazine, tomato cotyledons with pTC217 / pTC147; format: cell-based; conditions: for Editing efficiency: total purple spots (pTC217)/total purple spots (pTC147)×100 / Editing efficiency / Purple spot/cotyledon (Avg.) / Purple spots (Total): 21 dpi
Text: In the present invention, a method of increasing the HDR efficiency according to blocking of the NHEJ pathway by using Scr7 pyrazine chemical compound, which is an inhibitor of ligase IV of the NHEJ pathway in competitive relationship with the HDR pathway, was employed. As a result, when Scr7 pyrazine is used, the HDR efficiency had increased by 4 times compared to the comparative control group.
In order to measure the HDR frequency of Cas9, 21 days after the Agrobacterium infection, purple spots were counted from the cotyledon which has been infected with pTC217 (BeYDV with Cas9/gRNA1b) virus replicon and also from the cotyledon which has been transformed with pTC147 (35S:ANT1 T-DNA) control vector. By dividing the total number of purple spots that has been counted from callus generated with pTC217 by the total number of purple spots that has been counted from callus generated with pTC147, the HDR frequency rate was estimated.
DNA repair is mostly achieved by NHEJ pathway, and HDR-based repair occurs very limitedly. According to previous studies made on mammals, it was reported that HDR efficiency can be increased by blocking the NHEJ pathway. It is reported that SCR7 pyrazine, which is an inhibitor of mammalian ligase IV, can increase HDR as much as about 19 times in mouse, or 5 times in human cell line. […] However, no report has been made regarding the influence of SCR7 pyrazine on plant HDR. Accordingly, the effect of a treatment with different cultivation period (0, 1, 2 or 3 days) or different SCR7 pyrazine concentration (0, 1, 10 μM) was examined by the inventors of the present invention by using Cas9 structure pTC217 (BeYDV having Cas9/gRNA1b).
[Editing efficiency: total purple spots (pTC217)/total purple spots (pTC147)×100]

ligase IV = conditions: reported, background art; cited from earlier work
[4] = Table 13 (Change 1), pTC147 (T-DNA), SCR7 1 μM, 1 day, cv. Hong-Kwang, DD→16L/8D, 28° C.
[5] = Table 13 (Change 1), pTC147 (T-DNA), SCR7 1 μM, 2 days, cv. Hong-Kwang, DD→16L/8D, 28° C.
[6] = Table 13 (Change 1), pTC147 (T-DNA), SCR7 1 μM, 3 days, cv. Hong-Kwang, DD→16L/8D, 28° C.
[7] = Table 13 (Change 1), pTC147 (T-DNA), SCR7 10 μM, 1 day, cv. Hong-Kwang, DD→16L/8D, 28° C.
[8] = Table 13 (Change 1), pTC147 (T-DNA), SCR7 10 μM, 2 days, cv. Hong-Kwang, DD→16L/8D, 28° C.
[9] = Table 13 (Change 1), pTC147 (T-DNA), SCR7 10 μM, 3 days, cv. Hong-Kwang, DD→16L/8D, 28° C.
[10] = Table 13 (Change 1), pTC217, SCR7 1 μM, 1 day, cv. Hong-Kwang, DD→16L/8D, 28° C.
[11] = Table 13 (Change 1), pTC217, SCR7 1 μM, 2 days, cv. Hong-Kwang, DD→16L/8D, 28° C.
[12] = Table 13 (Change 1), pTC217, SCR7 1 μM, 3 days, cv. Hong-Kwang, DD→16L/8D, 28° C.
[13] = Table 13 (Change 1), pTC217, SCR7 10 μM, 1 day, cv. Hong-Kwang, DD→16L/8D, 28° C.
[14] = Table 13 (Change 1), pTC217, SCR7 10 μM, 2 days, cv. Hong-Kwang, DD→16L/8D, 28° C.
[15] = Table 13 (Change 1), pTC217, SCR7 10 μM, 3 days, cv. Hong-Kwang, DD→16L/8D, 28° C.
[16] = Table 14 (Change 2), pTC147 (T-DNA), SCR7 1 μM, 1 day, cv. Hong-Kwang, DD→16L/8D, 28° C.
[17] = Table 14 (Change 2), pTC147 (T-DNA), SCR7 1 μM, 2 days, cv. Hong-Kwang, DD→16L/8D, 28° C.
[18] = Table 14 (Change 2), pTC147 (T-DNA), SCR7 1 μM, 3 days, cv. Hong-Kwang, DD→16L/8D, 28° C.
[19] = Table 14 (Change 2), pTC147 (T-DNA), SCR7 10 μM, 1 day, cv. Hong-Kwang, DD→16L/8D, 28° C.
[20] = Table 14 (Change 2), pTC147 (T-DNA), SCR7 10 μM, 2 days, cv. Hong-Kwang, DD→16L/8D, 28° C.
[21] = Table 14 (Change 2), pTC147 (T-DNA), SCR7 10 μM, 3 days, cv. Hong-Kwang, DD→16L/8D, 28° C.
[22] = Table 14 (Change 2), pTC217, SCR7 1 μM, 1 day, cv. Hong-Kwang, DD→16L/8D, 28° C.
[23] = Table 14 (Change 2), pTC217, SCR7 1 μM, 2 days, cv. Hong-Kwang, DD→16L/8D, 28° C.
[24] = Table 14 (Change 2), pTC217, SCR7 1 μM, 3 days, cv. Hong-Kwang, DD→16L/8D, 28° C.
[25] = Table 14 (Change 2), pTC217, SCR7 10 μM, 1 day, cv. Hong-Kwang, DD→16L/8D, 28° C.
[26] = Table 14 (Change 2), pTC217, SCR7 10 μM, 2 days, cv. Hong-Kwang, DD→16L/8D, 28° C.
[27] = Table 14 (Change 2), pTC217, SCR7 10 μM, 3 days, cv. Hong-Kwang, DD→16L/8D, 28° C.
[28] = pTC147 (T-DNA), SCR7 1 μM, cv. Tom-Heart, 16L/8D, 25° C.
[29] = pTC147 (T-DNA), SCR7 10 μM, cv. Tom-Heart, 16L/8D, 25° C.
[30] = pTC217, SCR7 1 μM, cv. Tom-Heart, 16L/8D, 25° C.
[31] = pTC217, SCR7 10 μM, cv. Tom-Heart, 16L/8D, 25° C.

O=C(Nc1ccc(Br)cc1)c1ccc(Br)c(S(=O)(=O)NCc2ccccc2)c1 [RS-1, RAD51-stimulatory compound 1]
effect on HDR efficiency (recombinase RAD51): can increase the HDR efficiency in mouse
increase of HDR efficiency (RAD51): approximately 3 times

O=c1[nH]c(=S)[nH]c2nc(-c3ccccc3)c(-c3ccccc3)nc12 [SCR7, 2,3-dihydro-6,7-diphenyl-2-thioxo-4 (1H)-pteridinone]
increase of HDR (mammalian ligase IV [1]): about 19 times
increase of HDR (mammalian ligase IV [2]): ~5 times
Editing efficiency: total purple spots (pTC217)/total purple spots (pTC147)×100 ([3]; SCR7 1 μM, cv. Tom-Heart, 16L/8D, 25° C.): 4.5
Editing efficiency: total purple spots (pTC217)/total purple spots (pTC147)×100 ([3]; SCR7 10 μM, cv. Tom-Heart, 16L/8D, 25° C.): 11.9
Editing efficiency ([3]; Table 13 (Change 1), SCR7 1 μM, 1 day, cv. Hong-Kwang, DD→16L/8D, 28° C.): 1.89
Editing efficiency ([3]; Table 13 (Change 1), SCR7 1 μM, 2 days, cv. Hong-Kwang, DD→16L/8D, 28° C.): 3.39
Editing efficiency ([3]; Table 13 (Change 1), SCR7 1 μM, 3 days, cv. Hong-Kwang, DD→16L/8D, 28° C.): 7.74
Editing efficiency ([3]; Table 13 (Change 1), SCR7 10 μM, 1 day, cv. Hong-Kwang, DD→16L/8D, 28° C.): 3.41
Editing efficiency ([3]; Table 13 (Change 1), SCR7 10 μM, 2 days, cv. Hong-Kwang, DD→16L/8D, 28° C.): 9.27
Editing efficiency ([3]; Table 13 (Change 1), SCR7 10 μM, 3 days, cv. Hong-Kwang, DD→16L/8D, 28° C.): 22.93
Purple spot/cotyledon (Avg.) [3, 4]: 28.7
Purple spots (Total) [3, 4]: 1005
Purple spot/cotyledon (Avg.) [3, 5]: 26.9
Purple spots (Total) [3, 5]: 942
Purple spot/cotyledon (Avg.) [3, 6]: 23.2
Purple spots (Total) [3, 6]: 813
Purple spot/cotyledon (Avg.) [3, 7]: 20.1
Purple spots (Total) [3, 7]: 703
Purple spot/cotyledon (Avg.) [3, 8]: 18.8
Purple spots (Total) [3, 8]: 658
Purple spot/cotyledon (Avg.) [3, 9]: 14.2
Purple spots (Total) [3, 9]: 497
Purple spot/cotyledon (Avg.) [3, 10]: 0.55
Purple spots (Total) [3, 10]: 19
Purple spot/cotyledon (Avg.) [3, 11]: 0.93
Purple spots (Total) [3, 11]: 32
Purple spot/cotyledon (Avg.) [3, 12]: 1.8
Purple spots (Total) [3, 12]: 63
Purple spot/cotyledon (Avg.) [3, 13]: 0.68
Purple spots (Total) [3, 13]: 24
Purple spot/cotyledon (Avg.) [3, 14]: 1.75
Purple spots (Total) [3, 14]: 61
Purple spot/cotyledon (Avg.) [3, 15]: 3.26
Purple spots (Total) [3, 15]: 114
Editing efficiency ([3]; Table 14 (Change 2), SCR7 1 μM, 1 day, cv. Hong-Kwang, DD→16L/8D, 28° C.): 7.45
Editing efficiency ([3]; Table 14 (Change 2), SCR7 1 μM, 2 days, cv. Hong-Kwang, DD→16L/8D, 28° C.): 7.17
Editing efficiency ([3]; Table 14 (Change 2), SCR7 1 μM, 3 days, cv. Hong-Kwang, DD→16L/8D, 28° C.): 7.54
Editing efficiency ([3]; Table 14 (Change 2), SCR7 10 μM, 1 day, cv. Hong-Kwang, DD→16L/8D, 28° C.): 11.34
Editing efficiency ([3]; Table 14 (Change 2), SCR7 10 μM, 2 days, cv. Hong-Kwang, DD→16L/8D, 28° C.): 13.52
Editing efficiency ([3]; Table 14 (Change 2), SCR7 10 μM, 3 days, cv. Hong-Kwang, DD→16L/8D, 28° C.): 15.15
Purple spot/cotyledon (Avg.) [3, 16]: 26.0
Purple spots (Total) [3, 16]: 912
Purple spot/cotyledon (Avg.) [3, 17]: 17.9
Purple spots (Total) [3, 17]: 627
Purple spot/cotyledon (Avg.) [3, 18]: 18.9
Purple spots (Total) [3, 18]: 663
Purple spot/cotyledon (Avg.) [3, 19]: 22.9
Purple spots (Total) [3, 19]: 802
Purple spot/cotyledon (Avg.) [3, 20]: 21.5
Purple spots (Total) [3, 20]: 754
Purple spot/cotyledon (Avg.) [3, 21]: 18.8
Purple spots (Total) [3, 21]: 660
Purple spot/cotyledon (Avg.) [3, 22]: 1.96
Purple spots (Total) [3, 22]: 68
Purple spot/cotyledon (Avg.) [3, 23]: 1.29
Purple spots (Total) [3, 23]: 45
Purple spot/cotyledon (Avg.) [3, 24]: 1.44
Purple spots (Total) [3, 24]: 50
Purple spot/cotyledon (Avg.) [3, 25]: 2.60
Purple spots (Total) [3, 25]: 91
Purple spot/cotyledon (Avg.) [3, 26]: 2.91
Purple spots (Total) [3, 26]: 102
Purple spot/cotyledon (Avg.) [3, 27]: 2.85
Purple spots (Total) [3, 27]: 100
increase of HDR efficiency ([3]; compared to the comparative control group): 4 times
HDR frequency, dependence on treatment ([3]; cultivation period 0, 1, 2 or 3 days, 0, 1, 10 μM, pTC217): HDR frequency increases in accordance with an increase in the treatment time (period) and concentration
Purple spot/cotyledon (Avg.) [3, 28]: 22.2
Purple spots (Total) [3, 28]: 1154
Purple spot/cotyledon (Avg.) [3, 29]: 21.8
Purple spots (Total) [3, 29]: 1137
Purple spot/cotyledon (Avg.) [3, 30]: 1
Purple spots (Total) [3, 30]: 52
Purple spot/cotyledon (Avg.) [3, 31]: 2.61
Purple spots (Total) [3, 31]: 136
increase of HDR (ligase IV): 2 to 19 times
